According to PubChem BioAssay (NCI):
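Cultured in 96-well plates, cells were exposed to test compound for 48 hours across five concentrations. TGI is the concentration that stops growth completely.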

How the values were obtained:
Assay in all cases: DTP human tumour cell line panel, 48 h
HOP-62 NSCLC = test system: HOP-62 NSCLC
RXF 393 renal = test system: RXF 393 renal
MOLT-4 leukemia = test system: MOLT-4 leukemia
IGROV1 ovarian = test system: IGROV1 ovarian
OVCAR-3 ovarian = test system: OVCAR-3 ovarian
DLD-1 colon = test system: DLD-1 colon
CCRF-CEM leukemia = test system: CCRF-CEM leukemia
CAKI-1 renal = test system: CAKI-1 renal
LXFL 529 NSCLC = test system: LXFL 529 NSCLC
K-562 leukemia = test system: K-562 leukemia
U251 CNS = test system: U251 CNS
SNB-75 CNS = test system: SNB-75 CNS
M14 melanoma = test system: M14 melanoma
COLO 205 colon = test system: COLO 205 colon
NCI-H226 lung = test system: NCI-H226 lung
SNB-78 CNS = test system: SNB-78 CNS
SN12C renal = test system: SN12C renal
HCT-15 colon = test system: HCT-15 colon
TK-10 renal = test system: TK-10 renal
UACC-62 melanoma = test system: UACC-62 melanoma
DMS 273 small cell lung = test system: DMS 273 small cell lung
HL-60(TB) leukemia = test system: HL-60(TB) leukemia
SF-268 CNS = test system: SF-268 CNS
M19-MEL melanoma = test system: M19-MEL melanoma
SK-MEL-28 melanoma = test system: SK-MEL-28 melanoma
UO-31 renal = test system: UO-31 renal
786-0 renal = test system: 786-0 renal
DMS 114 small cell lung = test system: DMS 114 small cell lung
HOP-18 NSCLC = test system: HOP-18 NSCLC
SW-620 colon = test system: SW-620 colon
NCI-H23 lung = test system: NCI-H23 lung
MALME-3M melanoma = test system: MALME-3M melanoma
ACHN renal = test system: ACHN renal
HCC-2998 colon = test system: HCC-2998 colon
SK-OV-3 ovarian = test system: SK-OV-3 ovarian
XF 498 CNS = test system: XF 498 CNS
HOP-92 NSCLC = test system: HOP-92 NSCLC
SNB-19 CNS = test system: SNB-19 CNS
OVCAR-5 ovarian = test system: OVCAR-5 ovarian
SF-539 CNS = test system: SF-539 CNS
OVCAR-4 ovarian = test system: OVCAR-4 ovarian
SK-MEL-2 melanoma = test system: SK-MEL-2 melanoma
SF-295 CNS = test system: SF-295 CNS
LOX IMVI melanoma = test system: LOX IMVI melanoma
HCT-116 colon = test system: HCT-116 colon
A498 renal = test system: A498 renal
NCI-H460 lung = test system: NCI-H460 lung
UACC-257 melanoma = test system: UACC-257 melanoma
KM20L2 colon = test system: KM20L2 colon
HT29 colon = test system: HT29 colon
KM12 colon = test system: KM12 colon
EKVX NSCLC = test system: EKVX NSCLC
A549 NSCLC = test system: A549 NSCLC
RPMI-8226 leukemia = test system: RPMI-8226 leukemia
OVCAR-8 ovarian = test system: OVCAR-8 ovarian
NCI-H522 lung = test system: NCI-H522 lung
SK-MEL-5 melanoma = test system: SK-MEL-5 melanoma

## CC(=O)Nc1ccc(C2C(C(=O)Nc3ccccc3)=C(C)NC(C)=C2C(=O)Nc2ccccc2)cc1
HOP-62 NSCLC
  TGI: > 100 µM
RXF 393 renal
  TGI: > 100 µM
MOLT-4 leukemia
  TGI: > 100 µM
IGROV1 ovarian
  TGI: > 100 µM
OVCAR-3 ovarian
  TGI: > 100 µM
DLD-1 colon
  TGI: > 100 µM
CCRF-CEM leukemia
  TGI: > 100 µM
CAKI-1 renal
  TGI: > 100 µM
LXFL 529 NSCLC
  TGI: > 100 µM
K-562 leukemia
  TGI: > 100 µM
U251 CNS
  TGI: > 100 µM
SNB-75 CNS
  TGI: > 100 µM
M14 melanoma
  TGI: > 100 µM
COLO 205 colon
  TGI: > 100 µM
NCI-H226 lung
  TGI: > 100 µM
SNB-78 CNS
  TGI: > 100 µM
SN12C renal
  TGI: > 100 µM
HCT-15 colon
  TGI: > 100 µM
TK-10 renal
  TGI: > 100 µM
UACC-62 melanoma
  TGI: > 100 µM
DMS 273 small cell lung
  TGI: > 100 µM
HL-60(TB) leukemia
  TGI: > 100 µM
SF-268 CNS
  TGI: > 100 µM
M19-MEL melanoma
  TGI: > 100 µM
SK-MEL-28 melanoma
  TGI: > 100 µM
UO-31 renal
  TGI: > 100 µM
786-0 renal
  TGI: > 100 µM
DMS 114 small cell lung
  TGI: > 82.5 µM
HOP-18 NSCLC
  TGI: > 100 µM
SW-620 colon
  TGI: > 100 µM
NCI-H23 lung
  TGI: > 100 µM
MALME-3M melanoma
  TGI: > 100 µM
ACHN renal
  TGI: > 100 µM
HCC-2998 colon
  TGI: > 100 µM
SK-OV-3 ovarian
  TGI: > 100 µM
XF 498 CNS
  TGI: > 100 µM
HOP-92 NSCLC
  TGI: > 100 µM
SNB-19 CNS
  TGI: > 100 µM
OVCAR-5 ovarian
  TGI: > 100 µM
SF-539 CNS
  TGI: > 100 µM
OVCAR-4 ovarian
  TGI: > 100 µM
SK-MEL-2 melanoma
  TGI: > 100 µM
SF-295 CNS
  TGI: > 100 µM
LOX IMVI melanoma
  TGI: > 100 µM
HCT-116 colon
  TGI: > 100 µM
A498 renal
  TGI: > 100 µM
NCI-H460 lung
  TGI: > 100 µM
UACC-257 melanoma
  TGI: > 100 µM
KM20L2 colon
  TGI: > 100 µM
HT29 colon
  TGI: > 100 µM
KM12 colon
  TGI: > 100 µM
EKVX NSCLC
  TGI: > 100 µM
A549 NSCLC
  TGI: > 100 µM
RPMI-8226 leukemia
  TGI: > 100 µM
OVCAR-8 ovarian
  TGI: > 100 µM
NCI-H522 lung
  TGI: > 100 µM
SK-MEL-5 melanoma
  TGI: > 100 µM
